Data set [1] is described as follows: Rat pharmacokinetics study, oral gavage (Example B8). In kind it is in vivo. Here is the method: Pharmacokinetics of the testing compounds was determined in male SD rats, n=3. Briefly, each compound was prepared in 0.5% CMC-Na and 1% Tween in water to yield a homogeneous suspension at 1 mg/ml, and then administrated to 10 mg/kg via oral gavage. The animals were fasted overnight before dosing and fed for 4 hour post dosing with free access to water for all time. Blood samples were collected at pre-dose, 0.083, 0.25, 0.5, 1, 2, 4, 8 and 24 hours, into K2EDTA-coated tube via tail vein for serial sampling and cardiac puncture for terminal sampling. […] Plasma samples were stored at approximately −80° C. until analysis. The compound in the plasma samples were then extracted and concentrations determined by LC-MS/MS.

Data set [2] is described as follows: Metabolic stability assay in rat liver microsomes. In kind it is in vitro ADME. The conditions noted are these: for half-life at 1 µM: rat, liver microsomes. On the procedure:
The metabolic stability of the compounds was evaluated in incubation with rat liver microsomes.

The subject of another data set is C2C12 cells. As to the kind of experiment: Mitochondrial uncoupling activity by oxygen consumption rate (OCR) assay, Seahorse, in presence of oligomycin. The conditions noted are these: Mus musculus, C2C12; in the presence of oligomycin 2.5 μM; read-out: COCR-min: minimal concentration increasing OCR in the presence of oligomycin. In kind it is cell-based, mouse. A digest of the protocol: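 Mouse C2C12 myoblasts grown in 10% FBS medium had OCR measured on Seahorse XF96/XF24 sequentially: basal, after 2.5 μM oligomycin (final), then after compound at varying concentrations. Rotenone/antimycin A confirmed mitochondrial origin. COCR-min is the minimal compound concentration inducing OCR in the presence of oligomycin.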

Data set [3] in a line: PO pharmacokinetic study, oral exposure (Example B3). The conditions noted are these: blood, po; for AUC at 24 h: 10 mg/kg gavage. Type of data set: in vivo. On the procedure:
The blood concentration of the compound was then determined at 0 (pre-dosing), 5 min, 15 min, 30 min, 1 hr, 2 hr, 4 hr, 8 hr, 24 hr time points by LC-MS/MS analysis (See Tables 1 and 2, vide supra).

Data set [4] has as its system high-fat diet (HFD)-induced diabetic mouse model. Briefly: Efficacy in high-fat diet (HFD)-induced diabetic/fatty liver mouse model. In kind it is in vivo. The conditions noted are these: Mus musculus; HFD model, oral daily gavage; read-out: Efficacious dosage to reduce blood glucose in mouse models, oral daily gavage. On the procedure:
For HFD induced diabetic mouse model, C57Bl6 mice (male, n=6) were induced to obese and diabetic conditions by feeding high-fat diet (HFD, 60% fat calories, Research Diet, Inc. New Brunswick, NJ) for 3-4 months. […] During the 3-week period, the mice continued feeding HFD. […] The blood glucose levels were measured after an overnight fast, plasma insulin levels were tested after 5-6 hours fast, and the glycated HbA1c levels were determined in whole blood samples.
FIG. 15C and FIG. 15D show liver sections from mice fed HFD following 3 weeks of treatment with Compounds 25 and 64, respectively (P.O. dosing of 5 mg/kg, by daily gavage).
Experiments were similarly performed with other compounds, in either high-fat diet induced diabetes and fatty liver models, or in db/db mouse model, or in both, by daily oral gavage administration with low dosages.

The next data set has as its system C2C12. As to the kind of experiment: Cell growth inhibition assay (SRB), C2C12. In kind it is cell-based. The settings on record: Mus musculus, C2C12, 48 h. Here is the method: Cell growth inhibition assays were performed using a protocol standardized by National Cancer Institute (NCI) for evaluating anti-cancer drugs. Various mammalian cell lines were used for the assays. Briefly, the cells were inoculated into 96 well microtiter plates. After cell inoculation, the microtiter plates were incubated for cell growth for 24 h prior to the addition of compounds. After 24 h, two plates of each cell line were fixed in situ with TCA, to represent a measurement of the cell population for each cell line at the time of compound addition (Tz). Test compounds were solubilized in dimethyl sulfoxide. At the time of test compound addition, five 10-fold or ½ log serial dilutions were made to provide a total of five test compound concentrations plus control. Aliquots of 100 μl of these different test compound dilutions were added to the appropriate microtiter wells already containing 100 μl of the medium, resulting in the required final test compound concentrations. […] The bound stain was subsequently solubilized with 10 mM trizma base, and the absorbance was read on an automated plate reader at a wavelength of 515 nm. Using the seven absorbance measurements [time zero, (Tz), control growth, (C), and test growth in the presence of a compound at the five concentration levels (Ti)], the percentage growth was calculated at each of the test compound concentrations levels.

Data set [5] relates to cultured mammalian cells, the NIH-3T3 cells, C2C12 cells, and other mammalian cell lines. Briefly: Mitochondrial membrane potential (MMP) assay, TMRE (or DilC1(5)) staining, related to OCR induction. The conditions noted are these: ratio of concentration leading to 10% MMP retention (90% MMP loss, TMRE) to minimal concentration leading to OCR increase. In kind it is cell-based. On the procedure: Mitochondrial membrane potential assay was performed using the standard TMRE (tetramethylrhodamine ethyl ester) staining method with cultured mammalian cells, the NIH-3T3 cells, C2C12 cells, and other mammalian cell lines. Cells were seeded in 6-well plates and cultured in DMEM medium supplemented with 10% fetal bovine serum and 2 mM glutamine. Cells were allowed to grow to the logarithmic growth phase prior to experiments. The cells were treated with each individual compound at various concentrations for two hours, followed by staining with TMRE at a final concentration of 100 nM for 15 minutes. The cells were then washed once with PBS, and examined under fluorescence microscopy. Cells treated with various concentrations of niclosamide ethanolamine were used as a positive control.
In some examples, mitochondrial membrane potential was measured with DilC1(5) staining. Briefly, DilC1(5) was added to the cells to 50 nM final concentration and the cells were incubated at 37° C., 5% CO2, for 15 to 30 minutes. Cells were washed once by adding 2 mL of warm phosphate-buffered saline (PBS). Mitochondrial staining was determined by fluorescence microscopy with 633 nm excitation using standard filters for far-red emission.
Using the ratio between C10% TMRE (the concentration at which 10% MMP remains, i.e. 90% MMP is lost) and Cmin-OCR (the concentration at which minimal OCR induction is observed), we categorized the MMP-retaining uncouplers into two groups.

Another data set deals with HepG2. As to the kind of experiment: Cell growth inhibition assay (SRB), HepG2. The settings on record: Homo sapiens, HepG2, 48 h. In kind it is cell-based. On the procedure: Cell growth inhibition assays were performed using a protocol standardized by National Cancer Institute (NCI) for evaluating anti-cancer drugs. Various mammalian cell lines were used for the assays. Briefly, the cells were inoculated into 96 well microtiter plates. After cell inoculation, the microtiter plates were incubated for cell growth for 24 h prior to the addition of compounds. After 24 h, two plates of each cell line were fixed in situ with TCA, to represent a measurement of the cell population for each cell line at the time of compound addition (Tz). Test compounds were solubilized in dimethyl sulfoxide. At the time of test compound addition, five 10-fold or ½ log serial dilutions were made to provide a total of five test compound concentrations plus control. Aliquots of 100 μl of these different test compound dilutions were added to the appropriate microtiter wells already containing 100 μl of the medium, resulting in the required final test compound concentrations. Following test compound addition, the plates were incubated for an additional 48 h. The assay was terminated by the addition of cold TCA. Cells were fixed in situ with 50 μl of cold 50% (w/v) TCA (final concentration, 10% TCA), washed five times with tap water and air-dried. Sulforhodamine B (SRB) solution (100 μl) at 0.4% (w/v) in 1% acetic acid was added to each well, and plates were incubated for 10 minutes at room temperature. After staining, the unbound dye was removed by washing five times with 1% acetic acid and the plates were air-dried. The bound stain was subsequently solubilized with 10 mM trizma base, and the absorbance was read on an automated plate reader at a wavelength of 515 nm. Using the seven absorbance measurements [time zero, (Tz), control growth, (C), and test growth in the presence of a compound at the five concentration levels (Ti)], the percentage growth was calculated at each of the test compound concentrations levels.

For data set [6] the following is noted: in words, cited from earlier work.
Another data set has as its system animal models. The conditions noted are these: mixed with food, cited from earlier work.

The structures appear in SMILES notation. Like-named read-outs stand apart in the source and are kept apart here.

By AUC is commonly meant the area under the concentration-time curve, a measure of exposure. Low values mean less exposure, high ones more exposure. For orientation: GI50 means the concentration at which growth is held to half of that of the control. The AUC(0-t) is exposure summed from dosing to a finite time, without extrapolation to infinity. A low value points to less exposure.

Turning to `CN(C)CCc1cc(Cl)cc(C(=O)Nc2nc3ccc(C(F)(F)F)cc3s2)c1O` [Compound 2 of U.S. Pat. No. 10,227,315], the “Rat Oral PK (in vivo) half-life (T1/2, hour)” value in [1] (10 mg/kg oral gavage) was determined as 66.9 h. For the same compound, in [1] (plasma, 10 mg/kg, oral), the half-life is 66.9 h. Moreover, in data set [2] (1 μM compound, 0.5 mg/ml microsomal protein, 37° C., 1 µM), the “Metabolic stability half-life (T1/2, min, rat liver microsome)” value is reported as 2,132 min. Moreover, the half-life at 1 µM in [2] (1 μM compound, 0.5 mg/ml microsomal protein, 37° C., read-out: Metabolic stability half-life (T1/2, min, rat liver microsome)) stood at 35.5 h; in [2] (rat liver microsomes, read-out: rat microsome metabolic stability, half-life), 35.5 h.
Turning to `C[C@@H]1CN(Cc2cc(Cl)cc(C(=O)Nc3nc4ccc(C(F)(F)F)cc4s3)c2O)C[C@H](C)O1.Cl` [Compound 11, 5-chloro-3-((cis-2,6-dimethylmorpholino)methyl)-2-hydroxy-N-(6-(trifluoromethyl)benzo[d]thiazol-2-yl)benzamide], the minimal effective concentration in the data set with C2C12 cells is below 5 µM. The compound further displayed an AUC at 24 h in data set [3] of 60000 to 120000 ng·h/mL. The minimal effective dose in [4] turned out to be 1 mg/kg. Moreover, the GI50 with C2C12 is 5 to 20 µM.
With `COCCOCc1cc(C(F)(F)F)cc2sc(NC(=O)c3cc(Cl)cc(C)c3O)nc12` [Compound 13, 5-chloro-2-hydroxy-N-(4-((2-methoxyethoxy)methyl)-6-(trifluoromethyl)benzo[d]thiazol-2-yl)-3-methylbenzamide], in the data set with C2C12 cells, the minimal effective concentration is below 5 µM. Also, the C10%TMRE/Cmin-OCR in data set [5] was around 13. In data set [3], this compound had an AUC at 24 h of 30000 to 60000 ng·h/mL. In addition, in the data set with C2C12, the 50% growth inhibitory concentration (GI50) is 5 to 20 µM.
`O=C(Nc1nc2ccc(C(F)(F)F)cc2s1)c1cc(Cl)cc(CN2CCC(C(F)(F)F)CC2)c1O` [Compound 57, 5-chloro-2-hydroxy-N-(6-(trifluoromethyl)benzo[d]thiazol-2-yl)-3-((4-(trifluoromethyl)piperidin-1-yl)methyl)benzamide]: in the data set with C2C12 cells, the minimal effective concentration is below 5 µM. In the data set with HepG2, this compound registered a concentration for 50% growth inhibition (GI50) below 5 µM.
Consider `COCc1cc(C(F)(F)F)cc2sc(NC(=O)c3cc(Cl)cc(C)c3O)nc12` [Compound 68, 5-chloro-2-hydroxy-N-(4-(methoxymethyl)-6-(trifluoromethyl)benzo[d]thiazol-2-yl)-3-methylbenzamide], for which the minimal effective concentration in the data set with C2C12 cells is below 5 µM. In [3], the AUC at 24 h was in the range of 30000 to 60000 ng·h/mL. This compound showed a GI50 with HepG2 below 5 µM.
`Cc1cc(Cl)cc(C(=O)Nc2nc3c(C4CCCO4)cc(C(F)(F)F)cc3s2)c1O` (centres unmarked) [Compound 71, 5-chloro-2-hydroxy-3-methyl-N-(4-(tetrahydrofuran-2-yl)-6-(trifluoromethyl)benzo[d]thiazol-2-yl)benzamide]: the minimal effective concentration in the data set with C2C12 cells is below 5 µM. In the data set on HepG2, this compound showed a GI50 below 5 µM.
As for `O=[N+]([O-])c1ccc(O)c([N+](=O)[O-])c1` [DNP, 2,4-dinitrophenol], the C10%TMRE/Cmin-OCR in [5] is at most 3. Further, the half-life result in data set [6] was “days to weeks”. In addition, the toxicity in humans result in data set [6] (human obesity treatment) was “exhibited high levels of toxicity and had a narrow therapeutic window”.
In data set [3] (50 mg/kg, 24 hr), `O=C(Nc1ccc([N+](=O)[O-])cc1Cl)c1cc(Cl)ccc1O` [niclosamide ethanolamine] returned an AUC(0-t) at 24 h of around 1800 ng·h/mL. For the same compound, the “dose required to achieve efficacy, equivalent” value with animal models (equivalent of ppm in diet) is 150 mg/kg/day. Further, the “dose required to achieve efficacy, in diet” value in the data set with animal models is on record as 1500 ppm.
